Test results published in ChEMBL document CHEMBL1122788, “Quantitative relationships between alpha-adrenergic activity and binding affinity of alpha-adrenoceptor agonists and antagonists” (J Med Chem, 1984).

Columns and labels:
[1] = molecular target: T1, Adrenergic receptor alpha-1 (Homo sapiens, UniProt P35348+P25100+P35368); experiment: In vitro antagonist activity against (-)-phenylephrine or (-)-norepinephrine-induced alpha1-adrenoceptor-mediated vasoconstriction of rabbit isolated pulmonary artery.; assay type: functional, Oryctolagus cuniculus; settings: target entry is the homologue from another species
T1 sequence (P35348 whole entry): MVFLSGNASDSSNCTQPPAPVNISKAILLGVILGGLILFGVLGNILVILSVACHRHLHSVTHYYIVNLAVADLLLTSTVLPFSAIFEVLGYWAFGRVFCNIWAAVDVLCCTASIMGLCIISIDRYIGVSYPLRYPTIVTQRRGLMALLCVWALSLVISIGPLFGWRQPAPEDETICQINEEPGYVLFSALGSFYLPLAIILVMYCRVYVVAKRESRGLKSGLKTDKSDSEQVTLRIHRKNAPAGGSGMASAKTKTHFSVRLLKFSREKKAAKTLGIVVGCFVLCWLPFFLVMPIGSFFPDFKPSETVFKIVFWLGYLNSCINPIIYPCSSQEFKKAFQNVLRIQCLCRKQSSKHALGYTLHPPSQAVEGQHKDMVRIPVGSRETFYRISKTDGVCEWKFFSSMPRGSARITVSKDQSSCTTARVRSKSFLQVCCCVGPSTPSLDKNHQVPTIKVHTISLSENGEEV
T1 sequence (P25100 whole entry): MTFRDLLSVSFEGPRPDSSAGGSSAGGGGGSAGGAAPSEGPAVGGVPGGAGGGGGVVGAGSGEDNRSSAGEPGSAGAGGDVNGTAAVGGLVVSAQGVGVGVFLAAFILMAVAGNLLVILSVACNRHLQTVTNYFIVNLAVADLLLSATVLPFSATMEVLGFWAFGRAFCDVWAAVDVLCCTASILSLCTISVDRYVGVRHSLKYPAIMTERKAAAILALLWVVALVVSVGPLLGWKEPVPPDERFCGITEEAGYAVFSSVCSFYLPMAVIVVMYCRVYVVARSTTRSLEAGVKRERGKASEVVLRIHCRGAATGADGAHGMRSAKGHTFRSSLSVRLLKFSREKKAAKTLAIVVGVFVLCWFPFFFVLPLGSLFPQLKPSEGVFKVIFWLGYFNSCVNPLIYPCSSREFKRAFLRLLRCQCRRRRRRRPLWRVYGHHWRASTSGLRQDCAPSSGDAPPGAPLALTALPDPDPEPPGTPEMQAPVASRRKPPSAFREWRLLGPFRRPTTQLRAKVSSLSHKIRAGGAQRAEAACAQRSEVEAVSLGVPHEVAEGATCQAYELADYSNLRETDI
T1 sequence (P35368 whole entry): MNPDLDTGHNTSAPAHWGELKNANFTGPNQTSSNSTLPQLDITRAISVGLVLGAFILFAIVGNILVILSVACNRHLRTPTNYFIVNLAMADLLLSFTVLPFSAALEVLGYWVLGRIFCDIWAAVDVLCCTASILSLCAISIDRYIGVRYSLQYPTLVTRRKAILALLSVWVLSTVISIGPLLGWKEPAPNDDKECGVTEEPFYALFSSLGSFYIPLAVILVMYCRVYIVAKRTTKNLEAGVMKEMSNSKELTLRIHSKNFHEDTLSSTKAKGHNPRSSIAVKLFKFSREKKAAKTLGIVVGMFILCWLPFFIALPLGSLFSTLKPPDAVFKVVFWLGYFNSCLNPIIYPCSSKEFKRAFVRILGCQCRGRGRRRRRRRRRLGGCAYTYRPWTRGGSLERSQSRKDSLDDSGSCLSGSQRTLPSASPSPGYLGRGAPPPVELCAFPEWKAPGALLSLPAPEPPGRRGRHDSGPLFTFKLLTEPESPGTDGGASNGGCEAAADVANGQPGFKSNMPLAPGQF

[2] = molecular target: T2, Adrenergic receptor alpha-2 (Rattus norvegicus, UniProt P22086+P19328+P22909); experiment: Antagonist activity against B-HT 933-induced alpha-2-adrenoceptor-mediated vasoconstriction in pithed normotensive rats; assay type: functional
T2 sequence (P22086 whole entry): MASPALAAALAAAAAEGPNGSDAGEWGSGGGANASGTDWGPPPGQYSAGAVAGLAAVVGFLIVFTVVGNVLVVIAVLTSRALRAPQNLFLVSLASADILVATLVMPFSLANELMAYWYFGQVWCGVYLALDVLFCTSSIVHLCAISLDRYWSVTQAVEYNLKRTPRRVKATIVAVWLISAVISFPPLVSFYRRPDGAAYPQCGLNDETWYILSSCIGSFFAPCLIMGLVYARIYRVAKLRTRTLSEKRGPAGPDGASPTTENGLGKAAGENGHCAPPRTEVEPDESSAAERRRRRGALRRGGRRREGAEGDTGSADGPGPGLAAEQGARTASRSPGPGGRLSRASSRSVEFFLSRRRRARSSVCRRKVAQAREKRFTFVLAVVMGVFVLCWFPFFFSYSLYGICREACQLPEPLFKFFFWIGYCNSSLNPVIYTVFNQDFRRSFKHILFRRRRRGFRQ
T2 sequence (P19328 whole entry): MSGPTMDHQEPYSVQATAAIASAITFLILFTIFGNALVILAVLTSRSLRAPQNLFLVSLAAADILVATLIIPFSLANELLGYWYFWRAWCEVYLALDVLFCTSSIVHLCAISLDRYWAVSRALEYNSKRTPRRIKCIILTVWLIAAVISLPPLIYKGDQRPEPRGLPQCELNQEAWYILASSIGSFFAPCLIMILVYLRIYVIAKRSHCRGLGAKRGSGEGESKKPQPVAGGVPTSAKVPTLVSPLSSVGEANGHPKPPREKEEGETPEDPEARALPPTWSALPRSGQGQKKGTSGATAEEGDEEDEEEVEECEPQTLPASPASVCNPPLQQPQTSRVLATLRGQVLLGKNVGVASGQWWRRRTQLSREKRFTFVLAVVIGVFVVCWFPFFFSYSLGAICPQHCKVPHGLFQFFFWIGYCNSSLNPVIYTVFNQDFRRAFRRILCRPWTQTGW
T2 sequence (P22909 whole entry): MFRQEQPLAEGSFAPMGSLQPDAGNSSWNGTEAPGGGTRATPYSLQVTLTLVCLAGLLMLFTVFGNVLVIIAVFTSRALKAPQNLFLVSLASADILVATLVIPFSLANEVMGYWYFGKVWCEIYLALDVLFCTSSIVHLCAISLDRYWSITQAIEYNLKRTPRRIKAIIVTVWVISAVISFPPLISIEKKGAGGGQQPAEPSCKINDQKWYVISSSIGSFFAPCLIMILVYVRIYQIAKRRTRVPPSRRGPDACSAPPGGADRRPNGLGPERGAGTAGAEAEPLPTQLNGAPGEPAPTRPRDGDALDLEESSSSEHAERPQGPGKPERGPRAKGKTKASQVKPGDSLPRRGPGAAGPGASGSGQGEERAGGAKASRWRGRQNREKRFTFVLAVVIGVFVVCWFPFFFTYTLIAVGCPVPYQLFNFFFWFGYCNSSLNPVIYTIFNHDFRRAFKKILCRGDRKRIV

[3] = molecular target: T2, Adrenergic receptor alpha-2; experiment: Inhibition of specific [3H]clonidine binding (0.4 nM) to rat brain membranes alpha-2 adrenergic receptor; assay type: cell membranes, Membrane
[4] = molecular target: Adrenergic receptor alpha-2 (Homo sapiens) (UniProt P08913+P18825+P18089); settings: Oryctolagus cuniculus

pC30 [4]	Structure (SMILES)	pA2 [1]	pA2 [2]	IC50 [3] [nM]
–	CN1C[C@H](C(=O)N[C@]2(C)O[C@@]3(O)[C@@H]4CCCN4C(=O)[C@H](Cc4ccccc4)N3C2=O)C[C@@H]2c3cccc4[nH]cc(c34)C[C@H]21 [DIHYDROERGOTAMINE]	7.55	7.25	3.7
5.89	C=CCN1Cc2ccccc2-c2ccccc2C1 [AZAPETINE]	6.96	4.88	1300
